Data set [1] concerns MDR E. coli CVCC195. Put plainly: Antibacterial activity after incubation in mouse serum (inhibition zone). In kind it is cell-based, Escherichia coli. The settings on record: until 8 h of incubation. The procedure: Serum stability of R7 and its parent-L7 was tested as previously described with minor modifications[46],[53]. Briefly, each peptide was added to the 25% mouse serum to a final concentration of 0.5 mM; 250 µL aliquots of samples were taken at 0, 0.5, 1, 2, 4 and 8 h, and mixed with 20 µL 15% trichloroacetic acid (TCA). The samples were incubated at 4 °C for 15 min and centrifuged for 10 min at 12,000 rpm. The supernatants were analyzed by RP-HPLC or inhibition zone method. Moreover, after incubation in serum for 2 h, R7 was analyzed by matrix assisted laser desorption/ionization-time of flight mass spectrometry (MALDI-TOF MS) and high-performance liquid chromatography-mass spectrometry (HPLC-MS), respectively.

Data set [2] in a line: Detection of R7 in mouse blood after injection (RP-HPLC). The class given is in vivo. As to conditions: R7 10 ~ 50 mg/kg intraperitoneal, intravenous or subcutaneous, blood at 5, 30, 60 and 120 min. Here is the method: To further study the cleavage efficiency of chimeric peptide R7, the mice were injected with R7 (10 ~ 50 mg/kg) by different routes, including intraperitoneal, intravenous or subcutaneous ones, respectively; blood was taken from the orbits at different time (5, 30, 60, and 120 min, respectively) and detected by RP-HPLC. […] Here are several conditions that may negatively impact RP-HPLC detection results: (i) R7 may bind to other proteins such as plasma protein and form aggregates; (ii) the concentration of R7 after cleavage was too low to detect target peptide by RP-HPLC; (iii) R7 may be degraded by some cellular proteases present in serum in vivo[45]. Furthermore, we used more sensitive liquid chromatograph mass spectrometer (LC-MS) to detect R7 and its possible degradation products in mice. […] We further used MALDI-TOF MS with higher resolution to analyze R7 degradation products in blood. As shown in Supplementary Table 5, R7 was cleaved into two dual-function fragments in the serum principally, including one from position 1 to 15 that can target LPS and the other mainly from position 18 to 35 that has antibacterial activity. […] In addtion, in vivo stability of peptides in blood has been well modeled by ex vivo stability in serum. […] In fact, several strategies have been proposed to improve the stability of AMPs. […]

Data set [3] has as its system T1, furin.
T1 construct: purchased NEB (New England Biolabs) P8077
Briefly: Cleavage of R7 by furin in vitro (RP-HPLC). In kind it is in vitro ADME. As to conditions: human, recombinant human furin enzyme, furin 8 U/reaction, 25 °C, RP-HPLC peak area, read-out: Cleavage efficiency. Here is the method: Chimeric peptide R7 was treated with recombinant human furin enzyme (8 U/reaction; NEB P8077) in 50-μL reactions supplemented with in 20 mM HEPES, 0.1% Triton X-100, 1 mM CaCl2, 0.2 mM β-mercaptoethanol. The reaction mixtures were incubated at 25 °C for 65 h. An aliquot of 50 μL sample was taken at different time points, and analyzed by RP-HPLC or MALDI-TOF MS. […] The cleavage rate of R7 was calculated from the peak area as follows: Cleavage rate (%) = [(Area0 –Areat)/Area0] × 100, where 0 and t present digestion time[58].

Residues, ends and D or L forms follow the SMILES beside them.

Consider `CSCC[C@H](NC(=O)[C@H](CCCNC(=N)N)NC(=O)[C@H](Cc1c[nH]c2ccccc12)NC(=O)[C@H](C)NC(=O)[C@H](Cc1c[nH]c2ccccc12)NC(=O)[C@H](CCCNC(=N)N)NC(=O)[C@H](Cc1c[nH]c2ccccc12)NC(=O)[C@H](C)NC(=O)[C@H](CCCCN)NC(=O)[C@H](Cc1ccccc1)NC(=O)[C@H](CCCNC(=N)N)NC(=O)[C@H](CCCNC(=N)N)NC(=O)[C@H](CCCCN)NC(=O)[C@H](CCCNC(=N)N)NC(=O)[C@H](CCCCN)NC(=O)[C@H](Cc1ccccc1)NC(=O)[C@H](Cc1ccccc1)NC(=O)[C@H](CO)NC(=O)[C@H](C)NC(=O)[C@H](CCCNC(=N)N)NC(=O)[C@@H](NC(=O)[C@H](CCCCN)NC(=O)[C@H](Cc1c[nH]c2ccccc12)NC(=O)[C@H](CCCNC(=N)N)NC(=O)CNC(=O)[C@H](CCC(N)=O)NC(=O)[C@@H](NC(=O)[C@@H](N)CCCNC(=N)N)C(C)C)C(C)C)C(=O)N[C@@H](CCCCN)C(=O)N[C@@H](CCCCN)C(=O)N[C@@H](CC(C)C)C(=O)N[C@@H](C)C(=O)N[C@@H](C)C(=O)N1CCC[C@H]1C(=O)N[C@@H](CO)C(=O)O` [R7] (H-RVQGRWKVRASFFKRKRRFKAWRWAWRMKKLAAPS-OH), for which the “change of antibacterial activity in mouse serum” value in data set [1] was “did not changed”. Moreover, the “target peak in mouse blood” value in data set [2] is “not detected”. For the same compound, the metabolised at 4 h in data set [3] (digestion 4 h) was found to be 14.5%. Moreover, the metabolised at 8 h in data set [3] (digestion 8 h) was 17.8%. For the same compound, in data set [3] (digestion 18 h), the metabolised at 18 h turned out to be 29.5%. In addition, the metabolised at 24 h in data set [3] (digestion 24 h) amounted to 36.2%. Besides, the metabolised at 30 h in data set [3] (digestion 30 h) was determined as 42.5%. Besides, the metabolised at 44 h in data set [3] (digestion 44 h) is 52.7%. The metabolised at 53 h in data set [3] (digestion 53 h) turned out to be 57.4%. Also, in data set [3] (digestion 65 h), the metabolised at 65 h amounted to 61.8%.

Values taken from paper PMC10654507, “A cleavable chimeric peptide with targeting and killing domains enhances LPS neutralization and antibacterial properties against multi-drug resistant E. coli” (Communications Biology, 2023).
